Experimental data as given in patent US10966969B2, “Therapeutic agent for liver diseases” (APTABIO THERAPEUTICS INC., priority 2017, dated 2021).

Key:
[1] = tested on: fatty liver model animal induced by diabetic db/db mice; assay: Test using fatty liver model animal induced by diabetic db/db mice; assay type: in vivo, diabetic db/db mice (C57BLKS/J-leprdb/leprdb); conditions: daily single dose of 60 mg/kg
Experimental: As subject animals, 6-week-old male diabetic db/db mice (C57BLKS/J-leprdb/leprdb) were purchased from Jackson Laboratory (Bar Harbor, Me., USA). The mice were kept under standard conditions. When the mice became 8 weeks old after being bred for about 2 weeks, test substances were administered to the mice. For 12 weeks after the mice became 8 weeks old, test substances were separately administered to a vehicle administration group and a 3-phenyl-4-normalpropyl-1-(pyridin-2-yl)-1H-pyrazol-5-ol hydrochloride administration group. A normal control group was used as a negative control. After completion of the test, the animals were anesthetized, liver tissues were taken out from respective animals and blood for inspection was collected. The liver tissues were weighed and imaged. The liver tissues were immobilized in 10% buffered neutral formalin. The immobilized tissues were cut to a predetermined thickness, subjected to a general tissue treatment process, embedded in paraffin and produced into tissue sections with a size of 4 to 5 μm, and the tissue sections were subjected to Hematoxylin & Eosin (H&E stain) as a general staining method and were histopatho-logically observed. In addition to H&E staining, Oil red-O staining was conducted in order to observe lipids induced by formation of fatty liver, levels of produced lipids were measured and an effect of drug administration on reduction of lipids was predicted. The liver tissues were stained with an Oil red 0 working solution, to evaluate levels of produced lipids. Blood was collected and centrifuged at 3000 rpm at 4° C. for 10 min. The serum of the upper layer was taken and the levels of triglyceride (TG) and LDL-cholesterol (LDL-C) were measured using an automatic blood biochemical analyzer (AU480, Beckman 30-18 Coulter, USA) and the results were analyzed. A ratio of liver weight to body weight was measured and the amount of triglyceride in liver tissues was measured to expect effects of drug administration on reduction of relative liver weight and triglyceride. The liver tissues were ground with a homogenizer, chloroform and methanol (2:1) were added thereto, the resulting mixture was centrifuged at 3,000 rpm and at 4° C. for 10 minutes and the organic solvent layer containing lipids was separated. The organic solvent in the separated lipid layer was removed in the dryer at 50° C. for 12 hours. The lipid-only tubes were immersed in 100% EtOH, and then suspended in a lipid-free tube and then assayed with a kit reagent for measuring triglyceride (AM157S-K, Asan, Korea).

[2] = tested on: fatty liver model animal induced by MCD (methionine/choline deficient) diet; assay: Test using fatty liver model animal induced by MCD (methionine/choline deficient) diet; assay type: in vivo, Sprague Dawley (SD) rats; conditions: MCD diet rats, daily single dose of 60 mg/kg, compared to the vehicle group
Experimental: As subject animals, 6-week-old male Sprague Dawley (SD) rats were purchased. All rats were kept under standard conditions. When the rats became 12 weeks old after being bred for about 6 weeks, test substances were administered to the rats. Test groups were set based on ALT level in blood collected at 5 weeks. For 5 weeks after the rats became 12 weeks old, test substances were separately administered to a vehicle administration group and a 3-phenyl-4-n-propyl-1-(pyridin-2-yl)-1H-pyrazol-5-ol hydrochloride administration group. A normal control group was used as a negative control. Blood was collected one day before the start of the experiment (from the jugular vein), and blood samples were collected on the 3 weeks, 5 weeks, 7 weeks, 9 weeks and on the day of the autopsy (24 hours after the fasting, total six times). In addition, plasma of each blood sample collected on the 5 weeks, 7 weeks, 9 weeks and on the day of the autopsy were analyzed. After completion of the test, the animals were anesthetized, liver tissues were taken out from respective animals and blood for inspection was collected. The liver tissues were weighed and imaged. The liver tissues were immobilized in 10% buffered neutral formalin. […] In addition to H&E staining, Oil red-O staining was conducted in order to observe lipids induced by formation of fatty liver, levels of produced lipids were measured and an effect of drug administration on reduction of lipids was predicted. […] The serum of the upper layer was taken and the level of alanine transaminase (ALT) was measured using an automatic blood biochemical analyzer (AU480, Beckman 30-18 Coulter, USA) and the results were analyzed. A ratio of liver weight to body weight was measured and the amount of triglyceride in liver tissues was measured to expect effects of drug administration on reduction of relative liver weight and triglyceride. […] Results are analyzed.

[3] = tested on: fatty liver model animal induced by high fat diet; assay: Test using fatty liver model animal induced by high fat diet; assay type: in vivo; conditions: high fat diet rats, daily single dose of 60 mg/kg, compared to the vehicle group and the obeticholic acid group
Experimental: As subject animals, 6-week-old rats were purchased. All rats were kept under standard conditions. When the rats became 12 weeks old after being bred for about 6 weeks, test substances were administered to the rats. Test groups were set based on ALT level in blood collected at 5 weeks. For 5 weeks after the rats reached 12 weeks old, test substances were separately administered to a vehicle administration group, an obeticholic acid administration group as a positive control group, and a 3-phenyl-4-normalpropyl-1-(pyridin-2-yl)-1H-pyrazol-5-ol hydrochloride administration group. Blood was collected one day before the start of the experiment (from jugular vein), and blood samples were collected on the 5 weeks, 8 weeks and on the day of the autopsy (24 hours after the fasting, total 4 times). In addition, plasma of each blood sample collected on the 5th week, 8th week and the day of the autopsy were analyzed. After completion of the test, the animals were anesthetized, liver tissues were taken out from respective animals and blood for inspection was collected. The liver tissues were weighed and imaged. The liver tissues were immobilized in 10% buffered neutral formalin. The immobilized tissues were cut to a predetermined thickness, subjected to a general tissue treatment process, embedded in paraffin and produced into tissue sections with a size of 4 to 5 μm, and the tissue sections were subjected to Hematoxylin & Eosin (H&E stain) as a general staining method and were histopatho-logically observed. In addition to H&E staining, Oil red-o staining was conducted in order to observe lipids induced by formation of fatty liver, levels of produced lipids were measured and an effect of drug administration on reduction of lipids was predicted. The liver tissues were stained with an Oil red o working solution, to evaluate levels of produced lipids. Blood was collected and centrifuged at 3000 rpm at 4° C. for 10 min. The serum of the upper layer was taken and the levels of alkaline phosphate (ALP), aspartate transminase (AST) and alanine transaminase (ALT) were measured using an automatic blood biochemical analyzer (AU480, Beckman 30-18 Coulter, USA) and the results were analyzed. A ratio of liver weight to body weight was measured and the amount of triglyceride in liver tissues was measured to expect effects of drug administration on reduction of relative liver weight and triglyceride. The liver tissues were ground with a homogenizer, chloroform and methanol (2:1) were added thereto, the resulting mixture was centrifuged at 3,000 rpm and at 4° C. for 10 minutes and the organic solvent layer containing lipids was separated. The organic solvent in the separated lipid layer was removed in the dryer at 50° C. for 12 hours. […]

[4] = compared to the vehicle group, FIG. 6C

In the case of `CCCc1c(-c2ccccc2)nn(-c2ccccn2)c1O.Cl` [compound 1, 3-phenyl-4-n-propyl-1-(pyridin-2-yl)-1H-pyrazol-5-ol hydrochloride], the “level of LDL in blood” value ([1]; FIG. 6A and 6B) is reported as “decreasing levels”, the “level of LDL in liver tissues” value ([1]; FIG. 6A and 6B) is reported as “decreasing levels” and the “level of TG in blood” value ([1]; FIG. 6A and 6B) is reported as “decreasing levels”. For the same compound, the “level of TG in liver tissues” value ([1]; FIG. 6A and 6B) was “decreasing levels”, the “liver tissue damage and hepatic fibrosis (TGF-β and Type IV collagen staining in liver tissues)” value ([1]; compared to the vehicle group, FIG. 5) was “significantly reduced” and the “mRNA expression of MCP-1 in liver tissues” value [1, 4] was “considerably reduced”. The “mRNA expression of PAI-1 in liver tissues” value [1, 4] was “considerably reduced”, the “mRNA expression of TGF-β in liver tissues” value [1, 4] was “considerably reduced” and the “mRNA expression of collagen I in liver tissues” value [1, 4] was “considerably reduced”. For the same compound, the “mRNA expression of collagen IV in liver tissues” value [1, 4] was “considerably reduced”, the “level of ALT in the blood” value ([2]; FIG. 1) was “significantly reduced” and the “inflammation in liver tissues (staining of α-SMA, IL-1β and TNF-α)” value ([2]; FIG. 2) was “considerably reduced”. The “liver tissue damage and hepatic fibrosis (TGF-β, H&E staining, Oil red O staining)” value ([2]; FIG. 3) was “reduced”, the relative liver weight ([3]; FIG. 4A) was “significantly reduced” and the “level of ALP in blood” value ([3]; FIG. 4B-4D) was “considerably decreased”. The “level of ALT in blood” value ([3]; FIG. 4B-4D) was “considerably decreased” and the “level of AST in blood” value ([3]; FIG. 4B-4D) was “considerably decreased”.
